Common to all, as to assay type: biochemical
Assay [1] concerns the target T1, human recombinant ROCK II (Homo sapiens, UniProt O75116).
T1 construct: recombinant human ROCK-II residues 11-552; His6 (N); purchased Millipore GmbH, Schwalbach, Germany
As to the kind of experiment: Determination of Rho kinase inhibition (ROCK II, Caliper peptide phosphorylation assay). The note with it: respective form (salt or free base) as obtained in the examples, 60 min at 32° C. As for the experimental part: To measure Rho-kinase inhibition, IC50 values were determined according to the following protocol:
Active human recombinant ROCK II (N-terminal His6-tagged recombinant human ROCK-II residues 11-552) was purchased from Millipore GmbH, Schwalbach, Germany. The peptide substrate, Fluorescein-[…]-COOH, was obtained from JPT Peptide Technologies, Berlin, Germany. Adenosine-5′-triphosphate (ATP), bovine serum albumine (BSA), dimethylsulphoxide (DMSO), 4-(2-hydroxyethyl)piperazine-1-ethanesulfonic acid (Hepes), Brij-35, dithiothreitol (DTT) and Pluronic F-68 were purchased from Sigma-Aldrich, Munich, Germany. Tris(hydroxymethyl)-aminomethane (Tris), magnesium chloride, NaOH, 1M HCl and EDTA were obtained from Merck Biosciences, Darmstadt, Germany. “Complete” protease inhibitor was from Roche Diagnostics, Mannheim, Germany. Test compounds were diluted to the appropriate concentrations in buffer 1 (25 mM Tris-HCl, pH 7.4, 5 mM MgCl2, 2 mM DTT, 0.02% (w/v) BSA, 0.01% Pluronic F-68 and 3% DMSO). The ROCK II enzyme was diluted to a concentration of 100 ng/mL in buffer 2 (25 mM Tris-HCl, pH 7.4, 5 mM MgCl2, 2 mM DTT and 0.02% (w/v) BSA). The peptide substrate and ATP were diluted to concentrations of 3 μM and 120 μM, respectively, in the buffer 2. Two μl of the compound solution were mixed with 2 μl of the diluted enzyme in a 384-well small volume microtiter plate (Greiner, Bio-One, Frickenhausen, Germany), and the kinase reaction was initiated by addition of 2 μl of the solution containing peptide substrate and ATP. After 60 min incubation at 32° C., the reaction was stopped by addition of 20 μl of a solution containing 100 mM Hepes-NaOH, pH 7.4, 0.015% (v/v) Brij-35, 45 mM EDTA and 0.227% chip coating reagent 1 (Caliper Lifescience Inc, Hopkinton, Mass.). Phosphorylation of the substrate peptide was then detected on a Caliper 3000 instrument essentially as described by Pommereau et al (J. Biomol. Screening 2004, 9(5), 409-416). Separation conditions were as follows: Pressure −1.3 psi, upstream voltage −1562 V, downstream voltage −500 V, sample sip time 200 ms. Positive controls (buffer 1 instead of compound) and negative controls (buffer 1 instead of compound and buffer 2 instead of ROCK II) were run in parallel on each plate.
The following products/compounds were tested in said assay by using the respective form (salt or free base) obtained as in the examples described above and the following activities were measured

In assay [2] the target is T2, recombinant human PKG1-beta (Homo sapiens, UniProt Q13976).
T2 construct: PKG1-beta (full-length, with N-terminal His-tag); His-tag (N); purchased Millipore GmbH, Schwalbach, Germany
T2 sequence (Q13976 1-686 isoform Q13976-2): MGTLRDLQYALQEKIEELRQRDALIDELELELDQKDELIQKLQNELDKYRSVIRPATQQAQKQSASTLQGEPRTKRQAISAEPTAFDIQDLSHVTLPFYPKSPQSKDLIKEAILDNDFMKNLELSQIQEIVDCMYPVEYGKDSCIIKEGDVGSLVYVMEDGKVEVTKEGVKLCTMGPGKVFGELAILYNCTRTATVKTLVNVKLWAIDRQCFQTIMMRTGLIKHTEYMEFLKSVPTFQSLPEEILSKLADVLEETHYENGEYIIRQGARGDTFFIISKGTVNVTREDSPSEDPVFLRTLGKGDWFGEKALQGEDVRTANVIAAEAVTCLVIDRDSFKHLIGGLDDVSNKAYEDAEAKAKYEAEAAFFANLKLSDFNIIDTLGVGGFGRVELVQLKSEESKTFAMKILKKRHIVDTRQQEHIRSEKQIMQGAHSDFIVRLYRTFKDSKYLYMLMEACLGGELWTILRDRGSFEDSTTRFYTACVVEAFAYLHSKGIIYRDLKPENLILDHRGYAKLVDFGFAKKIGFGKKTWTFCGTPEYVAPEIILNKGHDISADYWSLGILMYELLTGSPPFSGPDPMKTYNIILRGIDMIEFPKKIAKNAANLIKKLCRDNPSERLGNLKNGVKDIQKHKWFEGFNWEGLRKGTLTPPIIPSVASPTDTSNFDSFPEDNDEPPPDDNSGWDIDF
As to the kind of experiment: Determination of Protein Kinase G inhibition (selectivity). The note with it: from IC50 values. As for the experimental part:
(§1) 2) Determination of Protein Kinase a and Protein Kinase G Inhibition
(§2) To measure PKA and PKG1-beta inhibition, IC50 values were determined according to the following protocol:
(§3) Active recombinant human PKG1-beta (full-length, with N-terminal His-tag) was purchased from Millipore GmbH, Schwalbach, Germany. Active recombinant human PKA (residues 1-351, N-terminal His-tag) was obtained from Invitrogen, Karlsruhe, Germany. The peptide substrate, Fluorescein-[…]-COOH, was obtained from JPT Peptide Technologies, Berlin, Germany. Adenosine-5′-triphosphate (ATP), bovine serum albumine (BSA), dimethylsulphoxide (DMSO), 4-(2-Hydroxyethyl)piperazine-1-ethanesulfonic acid (Hepes), Brij-35, dithiothreitol (DTT) and Pluronic F-68 were purchased from Sigma-Aldrich, Munich, Germany. Tris(hydroxymethyl)-aminomethane (Tris), magnesium chloride, NaOH, 1M HCl and EDTA were obtained from Merck Biosciences, Darmstadt, Germany. “Complete” protease inhibitor was from Roche Diagnostics, Mannheim, Germany. Test compounds were diluted to the appropriate concentrations in buffer 1 (25 mM Tris-HCl, pH 7.4, 5 mM MgCl2, 2 mM DTT, 0.02% (w/v) BSA, 0.01% Pluronic F-68 and 3% DMSO). PKG1-beta and PKA were diluted to concentrations of 150 ng/ml and 30 ng/ml, respectively, in buffer 2. The peptide substrate and ATP were diluted to concentrations of 3 μM and 120 μM, respectively, in the buffer 2. Two μl of the compound solution were mixed with 2 μl of the diluted enzyme in a 384-well small volume microtiter plate (Greiner, Bio-One, Frickenhausen, Germany), and the kinase reaction was initiated by addition of 2 μl of the solution containing peptide substrate and ATP. After 60 min incubation at 32° C., the reaction was stopped by addition of 20 μl of a solution containing 100 mM Hepes-NaOH, pH 7.4, 0.015% (v/v) Brij-35, 45 mM EDTA and 0.227% chip coating reagent 1 (Caliper Lifescience Inc, Hopkinton, Mass.). Phosphorylation of the substrate peptide was then detected on a Caliper 3000 instrument essentially as described by Pommereau et al (J. Biomol. Screening 9(5), 409-416, 2004). Separation conditions were as follows: Pressure −1.3 psi, upstream voltage −1562 V, downstream voltage −500 V, sample sip time 200 ms, Positive controls (buffer 1 instead of compound) and negative controls (buffer 1 instead of compound and buffer 2 instead of kinase solution) were run in parallel on each plate. The following products/compounds were tested in said assay by using the respective form (salt or free base) obtained as in the examples described above and the following activities were measured.

In another assay the target is T3, recombinant human PKA (Homo sapiens, UniProt P17612).
T3 construct: recombinant human PKA (residues 1-351, N-terminal His-tag); His-tag (N); purchased Invitrogen, Karlsruhe, Germany
As to the kind of experiment: Determination of Protein Kinase A inhibition (selectivity). The note with it: from IC50 values. As for the experimental part:
as §1, §2, §3

A value given as a limit tells only on which side of the number the result lay.

T1 sequence (O75116 11-552): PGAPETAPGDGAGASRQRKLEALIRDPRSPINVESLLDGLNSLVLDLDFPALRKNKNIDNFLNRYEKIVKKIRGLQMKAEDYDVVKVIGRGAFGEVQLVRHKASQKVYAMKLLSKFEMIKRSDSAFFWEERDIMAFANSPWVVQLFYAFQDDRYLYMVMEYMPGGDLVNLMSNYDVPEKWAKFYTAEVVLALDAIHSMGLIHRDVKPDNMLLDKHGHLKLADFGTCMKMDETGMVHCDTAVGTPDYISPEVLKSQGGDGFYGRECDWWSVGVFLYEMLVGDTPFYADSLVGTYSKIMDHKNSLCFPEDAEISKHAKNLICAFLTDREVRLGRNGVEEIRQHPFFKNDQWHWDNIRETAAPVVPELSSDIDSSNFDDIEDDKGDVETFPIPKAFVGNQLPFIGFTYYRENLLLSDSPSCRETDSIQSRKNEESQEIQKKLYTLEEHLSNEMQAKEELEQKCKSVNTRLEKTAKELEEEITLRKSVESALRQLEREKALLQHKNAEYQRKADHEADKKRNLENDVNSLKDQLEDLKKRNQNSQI

`CC[C@]1(C(N)CF)CC[C@@H](Oc2cc3cc[nH]c(=O)c3cc2Cl)CC1` (stereo partly drawn) [Example 95, cis-6-[4-(1-Amino-2-fluoro-ethyl)-4-ethyl-cyclohexyloxy]-7-chloro-2H-isoquinolin-1-one]: the IC50 in assay [1] was ≤ 10 nM. Further, the “Selectivity against PKG” value in assay [2] was >300 fold. Moreover, the “Selectivity against PKA” value at recombinant human PKA is >1000 fold.
The matching figures for `CCC(N)C1(C(C)C)CCC(Oc2cc3cc[nH]c(=O)c3cc2Cl)CC1` (single isomer, unassigned) [Example 8, 6-[4-(1-Amino-propyl)-4-isopropyl-cyclohexyloxy]-7-chloro-2H-isoquinolin-1-one]: ≤ 10 nM, >100 fold and >100 fold.
The matching figures for `NC(c1ccccc1)C1(C2CCCC2)CCC(Oc2cc3cc[nH]c(=O)c3cc2Cl)CC1` (single isomer, unassigned) [Example 25, 6-[4-(Amino-phenyl-methyl)-4-cyclopentyl-cyclohexyloxy]-7-chloro-2H-isoquinolin-1-one]: 10 to 100 nM, >100 fold and >300 fold.
With `CC(C)CC(N)[C@]1(CC2CC2)CC[C@H](Oc2cc3cc[nH]c(=O)c3cc2Cl)CC1` (stereo partly drawn) [Example 64, cis-6-[4-(1-Amino-3-methyl-butyl)-4-cyclopropyl-methyl-cyclohexyloxy]-7-chloro-2H-isoquinolin-1-one], the IC50 in assay [1] is ≤ 10 nM. The “Selectivity against PKG” value in assay [2] is listed as >300 fold. For the same compound, on recombinant human PKA, the “Selectivity against PKA” value is reported as >1000 fold.
The like results for `CCC(N)C1(COC(C)C)CCC(Oc2cc3cc[nH]c(=O)c3cc2Cl)CC1` (single isomer, unassigned) [Example 19, 6-[4-(1-Amino-propyl)-4-isopropoxymethyl-cyclohexyloxy]-7-chloro-2H-isoquinolin-1-one] were, in that order, 10 to 100 nM, >300 fold and >1000 fold.
As for `CCCC(N)C1(CC2CC2)CCC(Oc2cc3cc[nH]c(=O)c3cc2Cl)CC1` (single isomer, unassigned) [Example 14, 6-[4-(1-Amino-butyl)-4-cyclopropylmethyl-cyclohexyloxy]-7-chloro-2H-isoquinolin-1-one], in assay [1], the IC50 is ≤ 10 nM. Moreover, in assay [2], the “Selectivity against PKG” value was >100 fold. The “Selectivity against PKA” value at recombinant human PKA is recorded as >1000 fold.
The matching figures for `CCC(N)[C@]1(C2CCS(=O)(=O)CC2)CC[C@H](Oc2cc3cc[nH]c(=O)c3cc2Cl)CC1` (stereo partly drawn) [Example 99, cis-6-[4-(1-amino-propyl)-4-(1,1-dioxo-tetrahydrothiopyran-4-yl)-cyclohexyloxy]-7-chloro-2H-isoquinolin-1-one]: ≤ 10 nM, >300 fold and >1000 fold.
For `CCC(N)C1(C(F)(F)F)CCC(Oc2cc3cc[nH]c(=O)c3cc2Cl)CC1` (single isomer, unassigned) [Example 103, 6-[4-(1-Amino-propyl)-4-trifluoromethyl-cyclohexyloxy]-7-chloro-2H-isoquinolin-1-one], the IC50 in assay [1] is ≤ 10 nM. The “Selectivity against PKG” value in assay [2] is >1000 fold. Besides, the “Selectivity against PKA” value on recombinant human PKA is on record as >1000 fold.
With `CC(N)[C@]1(C2CC2)CC[C@H](Oc2cc3cc[nH]c(=O)c3cc2Cl)CC1` (stereo partly drawn) [Example 72, cis-6-[4-(1-Amino-ethyl)-4-cyclopropyl-cyclohexyloxy]-7-chloro-2H-isoquinolin-1-one], the IC50 in assay [1] is 10 to 100 nM. The “Selectivity against PKG” value in assay [2] is on record as >100 fold. In addition, the “Selectivity against PKA” value on recombinant human PKA is >300 fold.
The matching figures for `CCCC(N)[C@]1(C(C)C)CC[C@H](Oc2cc3cc[nH]c(=O)c3cc2Cl)CC1` (stereo partly drawn) [Example 35, cis-6-[4-(1-Amino-butyl)-4-isopropyl-cyclohexyloxy]-7-chloro-2H-isoquinolin-1-one]: 10 to 100 nM, >10 fold and >300 fold.
The like results for `CCC(N)[C@]1(CC)CC[C@H](Oc2cc3cc[nH]c(=O)c3cc2F)CC1` (stereo partly drawn) [Example 50, cis-6-[4-(1-Amino-propyl)-4-ethyl-cyclohexyloxy]-7-fluoro-2H-isoquinolin-1-one] were, in that order, 10 to 100 nM, >10 fold and >300 fold.
The matching figures for `CCC(N)[C@]1(OC)CC[C@H](Oc2cc3cc[nH]c(=O)c3cc2Cl)CC1` (stereo partly drawn) [Example 58, cis-6-[4-(1-Amino-propyl)-4-methoxy-cyclohexyloxy]-7-chloro-2H-isoquinolin-1-one]: 10 to 100 nM, >300 fold and >300 fold.
Consider `CCC(N)C1(Cc2ccccc2)CCC(Oc2cc3cc[nH]c(=O)c3cc2Cl)CC1` (single isomer, unassigned) [Example 31, 6-[4-(1-Amino-propyl)-4-benzyl-cyclohexyloxy]-7-chloro-2H-isoquinolin-1-one], for which the “Selectivity against PKG” value in assay [2] is >100 fold. Further, the “Selectivity against PKA” value at recombinant human PKA was >10 fold.

The record behind these values is patent publication US8399482B2, “6-substituted isoquinolines and isoquinolinones” (Sanofi, priority 2008, dated 2013).
